Where two headings read alike, the source gives them in different places. Each block holds one compound with its values, some of them ahead of it.
What was measured:
[1] = system: carrageenan-induced hind paw edema; assay: Carrageenan-induced hind paw edema model; assay type: in vivo, mice
Method: Locally bred balb/c mice of both sexes (30-35 g) were purchased from the animal breeding laboratories of Inonu University ([…], Turkey). The animals were fed a standard pellet diet and water ad libitum in a temperature-controlled room. On the day before the treatments, food was withdrawn, but the animals were allowed free access of water. The allocation of animals to different groups was randomized, and the experiments were carried out under blind conditions. Mice used in the present study were cared for in accordance with the directory of the Inonu University Animal Care Unit, which applies the guidelines of the National Institutes of Health on laboratory animal welfare. Procedures involving animals and their care were conducted in conformity with international laws and policies and animal studies accepted by Inonu University Ethical Council (2011/A17). Test samples, suspended in a mixture of distilled water and 0.5% sodium carboxymethyl cellulose (CMC), were given orally to the animals. The control group animals received the same experimental handling as those of the test groups, except that the drug treatment was replaced with appropriate volumes of the dosing vehicle. […] For the preliminary activity screening, each test group was composed of four mice. […] Because of the daily changing circumstance, we used another control group for each experiment. For the determination of the effects on carrageenan-induced paw oedema, the modified method of Kasahara et al. was employed. One hour after the oral administration of either test sample or dosing vehicle, each mouse was injected with a freshly prepared (0.5 mg/25 μL) suspension of carrageenan (Sigma, St. Louis, MO, USA) in physiological saline (154 mM NaCl). The subplantar tissue of the right hind paw was the injection site for all mice. The contralateral paw (left hind paw) was injected with 25 μL saline solution as the internal control. […] The difference in footpad thickness between the right and left foot indicated the degree of inflammation for each mouse. The change in paw volume, either increase or decrease, was calculated and compared with the control group (dosing vehicle) and analyzed using statistical methods.

[2] = system: acetic acid-induced abdominal constriction; assay: Acetic acid-induced writhing (Koster) test; assay type: in vivo, mice
Method: Test samples, suspended in a mixture of distilled water and 0.5% sodium carboxymethyl cellulose (CMC), were given orally to the animals. The control group animals received the same experimental handling as those of the test groups, except that the drug treatment was replaced with appropriate volumes of the dosing vehicle. […] One hour after oral administration of test sample, each mouse was injected intraperitoneally with 3% (w/v) acetic acid solution (0.1 mL/10 g, bw). Starting 5 min after the acetic acid injection, the number of muscular contractions on mice were counted for a period of 10 min. A significant reduction in the number of writhings by any treatment as compared to the number of writhings in control animals was considered a positive analgesic response. The analgesic activity was expressed as a percentage change from writhing controls. ASA was used as a reference compound and administered at 200 mg/kg.

stomach = assay: Gastric-ulcerogenic effect (ulcer score); assay type: in vivo, mice
[3] = system: lipid peroxidation in stomach; assay: Lipid peroxidation in stomach (TBARS); assay type: in vivo, mice
LPO = LPO (TBARS) level in liver, kidney, colon, brain; assay type: in vivo, mice; details: celecoxib 25 mg/kg oral, 72 h
Method: (§1) Tissue samples were homogenized with ice-cold 150 mM KCl for the determination of LPO and glutathione (GSH) levels. The LPO levels were assayed by monitoring TBARS formation as described above.

myeloperoxidase (MPO) = assay: MPO activity in liver, kidney, colon, brain; assay type: in vivo, mice; details: celecoxib 25 mg/kg oral, 72 h
Method: MPO is an enzyme that is found predominantly in the azurophilic granules of polymorphonuclear leukocytes (PMN). […] MPO activity was measured in tissues in a procedure similar to that documented by […] et al.

glutathione (GSH) = assay: GSH level in liver, kidney, colon, brain; assay type: in vivo, mice; details: celecoxib 25 mg/kg oral, 72 h
Method: as §1

[4] = system: superoxide dismutase (SOD); assay: SOD activity in liver, kidney, colon, brain; assay type: in vivo, mice; details: celecoxib 25 mg/kg oral, 72 h
Method: SOD is a major antioxidant enzyme found in cells, which protect cells from oxidative stress. SOD activity in the tissue samples was measured according to the previously described method.

[5] = molecular target: T1, HCV NS5B RNA dependent RNA polymerase (Hepatitis C virus genotype 1b, UniProt P26663); assay: NS5B inhibition assay (primer dependent elongation, poly rA-U12); assay type: biochemical
T1 construct: HCV NS5B RNA dependent RNA polymerase activity
T1 sequence (P26663 2420-3010): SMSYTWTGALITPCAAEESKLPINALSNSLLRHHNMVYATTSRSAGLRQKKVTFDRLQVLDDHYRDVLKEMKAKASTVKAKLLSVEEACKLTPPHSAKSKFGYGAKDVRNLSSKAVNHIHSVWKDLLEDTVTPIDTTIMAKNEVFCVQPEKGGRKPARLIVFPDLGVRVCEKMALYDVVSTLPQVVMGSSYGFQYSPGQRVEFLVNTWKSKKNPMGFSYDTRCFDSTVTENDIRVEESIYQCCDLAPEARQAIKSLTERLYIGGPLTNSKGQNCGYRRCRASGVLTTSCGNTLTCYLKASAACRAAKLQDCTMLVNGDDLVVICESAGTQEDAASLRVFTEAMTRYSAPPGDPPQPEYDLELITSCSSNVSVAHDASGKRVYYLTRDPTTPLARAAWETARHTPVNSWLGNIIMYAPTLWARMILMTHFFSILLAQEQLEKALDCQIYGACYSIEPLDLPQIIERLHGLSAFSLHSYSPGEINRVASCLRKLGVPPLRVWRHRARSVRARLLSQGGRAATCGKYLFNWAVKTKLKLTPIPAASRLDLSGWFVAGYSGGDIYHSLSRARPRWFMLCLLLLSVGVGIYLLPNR
Method: The compounds 1a–e and 2a–e were reconstituted in DMSO as 50 mM stocks, and serially diluted in DMSO to obtain working stocks. Wedelolactone, a known inhibitor of HCV NS5B activity, was employed as a reference compound. Preliminary screening was carried out at 100 μM to identify a wider range of compounds.
All synthesized compounds were evaluated for their effect on HCV NS5B RNA dependent RNA polymerase activity in primer dependent elongation assays as previously described. Activity of NS5B in the absence of the inhibitor but containing an equivalent amount of DMSO (control reaction) was set at 100% and that in the presence of the inhibitor was quantified relative to this control.

[6] = brain, series with 1a 100 mg/kg
[7] = brain, series with 1a 200 mg/kg
[8] = colon, series with 1a 100 mg/kg
[9] = colon, series with 1a 200 mg/kg
[10] = kidney, series with 1a 100 mg/kg
[11] = kidney, series with 1a 200 mg/kg
[12] = liver, series with 1a 100 mg/kg
[13] = liver, series with 1a 200 mg/kg
[14] = read-out: Anti-NS5B Activity (% Inh., 100 µM)

SMILES: Cc1ccc(-c2cc(C(F)(F)F)nn2-c2ccc(S(N)(=O)=O)cc2)cc1 [Celecoxib, 4-[5-(4-methylphenyl)-3-(trifluoromethyl)-1H-pyrazole-1-yl]benzene-sulfonamide, reference compound]
Swelling in thickness ± SEM ([1]; 25 mg/kg per os, 90 min): 57.0 ± 6.9 × 10^−2 mm
Swelling in thickness ± SEM ([1]; 25 mg/kg per os, 180 min): 42.0 ± 3.3 × 10^−2 mm
percent inhibitory activity ([1]; 25 mg/kg per os, 180 min): 54.3%
Swelling in thickness ± SEM ([1]; 25 mg/kg per os, 270 min): 94.0 ± 10.4 × 10^−2 mm
Swelling in thickness ± SEM ([1]; 25 mg/kg per os, 360 min): 103.0 ± 7.5 × 10^−2 mm
Writhing test (% inh.) ([2]; 25 mg/kg oral): 54%
Writhing test (Mean ± SEM) ([2]; 25 mg/kg oral): 8.0 ± 1.3
Ulcer score (stomach; celecoxib 25 mg/kg): 0/5
Lipid peroxidation ([3]; celecoxib 25 mg/kg): 417.8 ± 23.3 nmol TBARS/g wet weight
LPO (LPO; [6]): 8.18 ± 2.16 nmol/g tissue
LPO (LPO; [7]): 8.26 ± 1.01 nmol/g tissue
LPO (LPO; [8]): 7.12 ± 0.26 nmol/g tissue
LPO (LPO; [9]): 10.48 ± 2.69 nmol/g tissue
LPO (LPO; [10]): 11.12 ± 2.41 nmol/g tissue
LPO (LPO; [11]): 11.30 ± 2.52 nmol/g tissue
LPO (LPO; [12]): 9.56 ± 1.80 nmol/gtissue
LPO (LPO; [13]): 11.74 ± 2.25 nmol/gtissue
MPO (myeloperoxidase (MPO); [6]): 0.60 ± 0.23 U/gtissue
MPO (myeloperoxidase (MPO); [7]): 1.48 ± 0.46 U/gtissue
MPO (myeloperoxidase (MPO); [8]): 0.52 ± 0.26 U/gtissue
MPO (myeloperoxidase (MPO); [9]): 0.46 ± 0.26 U/gtissue
MPO (myeloperoxidase (MPO); [10]): 3.36 ± 1.57 U/g tissue
MPO (myeloperoxidase (MPO); [11]): 4.75 ± 1.59 U/g tissue
MPO (myeloperoxidase (MPO); [12]): 0.63 ± 0.30 U/gtissue
MPO (myeloperoxidase (MPO); [13]): 0.19 ± 0.06 U/gtissue
GSH (glutathione (GSH); [6]): 22.36 ± 2.45 µmol/g tissue
GSH (glutathione (GSH); [7]): 20.2 ± 3.26 µmol/g tissue
GSH (glutathione (GSH); [8]): 28.06 ± 1.45 µmol/g tissue
GSH (glutathione (GSH); [9]): 26.42 ± 3.46 µmol/g tissue
GSH (glutathione (GSH); [10]): 22.24 ± 4.17 µmol/g tissue
GSH (glutathione (GSH); [11]): 21.68 ± 5.56 µmol/g tissue
GSH (glutathione (GSH); [12]): 20.58 ± 4.25 µmol/g tissue
GSH (glutathione (GSH); [13]): 22.14 ± 1.04 µmol/g tissue
SOD [4, 6]: 24.84 ± 10.65 U/g tissue
SOD [4, 7]: 20.41 ± 13.73 U/g tissue
SOD [4, 8]: 16.85 ± 5.24 U/g tissue
SOD [4, 9]: 19.04 ± 5.60 U/g tissue
SOD [4, 10]: 17.79 ± 7.47 U/g tissue
SOD [4, 11]: 16.83 ± 9.71 U/g tissue
SOD [4, 12]: 22.78 ± 14.45 U/g tissue
SOD [4, 13]: 13.60 ± 11.98 U/g tissue
Anti-NS5B Activity (% Inh., 100 µM) ([5]; 100 µM): 9.5%
inhibition at 100 µM ([5]; read-out: Anti-NS5B Activity (% Inh., 100 µM), 100 µM): ~10%

Lipid peroxidation ([3]; 100 mg/kg, 8 h after analgesic test): 406.9 ± 27.0 nmol TBARS/g wet weight
inhibition at 100 µM [5, 14]: 14.6%
melting point: 228 to 231 °C
SMILES: Cc1ccc(-c2cc(C(F)(F)F)nn2-c2ccc(S(=O)(=O)NC(=S)Nc3ccc(C(F)(F)F)cc3)cc2)cc1 [Compound 1e]
Swelling in thickness ± SEM ([1]; 50 mg/kg per os, 90 min): 47.0 ± 3.3 × 10^−2 mm
percent inhibitory activity ([1]; 50 mg/kg per os, 90 min): 34.7%
Swelling in thickness ± SEM ([1]; 50 mg/kg per os, 180 min): 57.0 ± 6.2 × 10^−2 mm
percent inhibitory activity ([1]; 50 mg/kg per os, 180 min): 38.0%
Swelling in thickness ± SEM ([1]; 50 mg/kg per os, 270 min): 92.0 ± 1.2 × 10^−2 mm
percent inhibitory activity ([1]; 50 mg/kg per os, 270 min): 23.9%
Swelling in thickness ± SEM ([1]; 50 mg/kg per os, 360 min): 106.0 ± 6.7 × 10^−2 mm
percent inhibitory activity ([1]; 50 mg/kg per os, 360 min): 17.8%
Swelling in thickness ± SEM ([1]; 100 mg/kg per os, 90 min): 88.4 ± 2.6 × 10^−2 mm
Swelling in thickness ± SEM ([1]; 100 mg/kg per os, 180 min): 83.9 ± 3.4 × 10^−2 mm
percent inhibitory activity ([1]; 100 mg/kg per os, 180 min): 8.8%
Swelling in thickness ± SEM ([1]; 100 mg/kg per os, 270 min): 88.7 ± 11.4 × 10^−2 mm
percent inhibitory activity ([1]; 100 mg/kg per os, 270 min): 26.7%
Swelling in thickness ± SEM ([1]; 100 mg/kg per os, 360 min): 83.4 ± 9.6 × 10^−2 mm
percent inhibitory activity ([1]; 100 mg/kg per os, 360 min): 35.4%
Swelling in thickness ± SEM ([1]; 200 mg/kg per os, 90 min): 76.9 ± 5.7 × 10^−2 mm
Swelling in thickness ± SEM ([1]; 200 mg/kg per os, 180 min): 83.0 ± 6.8 × 10^−2 mm
Swelling in thickness ± SEM ([1]; 200 mg/kg per os, 270 min): 110.5 ± 7.5 × 10^−2 mm
Swelling in thickness ± SEM ([1]; 200 mg/kg per os, 360 min): 103.7 ± 5.2 × 10^−2 mm
percent inhibitory activity ([1]; 200 mg/kg per os, 360 min): 19.6%
anti-inflammatory activity (in words) ([1]; all doses, all measurement intervals): moderate-to-good
Writhing test (% inh.) ([2]; 100 mg/kg oral): −37.9%
Writhing test (Mean ± SEM) ([2]; 100 mg/kg oral, writhings counted 10 min from 5 min after acetic acid): 24.0 ± 3.0
Ulcer score (stomach; 200 mg/kg p.o., animals with lesions/animals): 0/5

inhibition at 100 µM [5, 14]: 53.5%
melting point: 251 to 252 °C
SMILES: Cc1ccc(-c2cc(C(F)(F)F)nn2-c2ccc(S(=O)(=O)NC(=S)Nc3ccccc3)cc2)cc1 [Compound 1b, N-(Phenylcarbamothioyl)-4-[5-(4-methylphenyl)-3-(trifluoromethyl)-1H-pyrazol-1-yl] benzene-sulfonamide]

Lipid peroxidation ([3]; ASA 200 mg/kg): 436.1 ± 17.1 nmol TBARS/g wet weight
SMILES: CC(=O)Oc1ccccc1C(=O)O [ASA, acetylsalicylic acid, reference compound]
Writhing test (% inh.) ([2]; 200 mg/kg oral): 74.7%
Writhing test (Mean ± SEM) ([2]; 200 mg/kg oral): 4.4 ± 0.9
Ulcer score (stomach; ASA 200 mg/kg): 3/5

IC50 ([5]; dose-response, 8–12 concentrations): 36.2 ± 1.2 µM
inhibition at 100 µM [5, 14]: 82.3%
melting point: 237 to 240 °C
SMILES: Cc1ccc(-c2cc(C(F)(F)F)nn2-c2ccc(S(=O)(=O)NC(=S)NCc3ccccc3)cc2)cc1 [Compound 1c, N-(Benzylcarbamothioyl)-4-[5-(4-methylphenyl)-3-(trifluoromethyl)-1H-pyrazol-1-yl] benzene-sulfonamide]

inhibition at 100 µM [5, 14]: 8.2%
melting point: 282 °C
SMILES: CCN1C(=O)CS/C1=N\S(=O)(=O)c1ccc(-n2nc(C(F)(F)F)cc2-c2ccc(C)cc2)cc1 [Compound 2a, N-(3-Ethyl-4-oxo-1,3-thiazolidin-2-yldene)-4-[5-(4-methylphenyl)-3-(trifluoromethyl)-1H-pyrazol-1-yl]benzenesulfonamide]

inhibition at 100 µM [5, 14]: 9.4%
melting point: 234 to 235 °C
SMILES: Cc1ccc(-c2cc(C(F)(F)F)nn2-c2ccc(S(=O)(=O)/N=C3\SCC(=O)N3c3ccc(C(F)(F)F)cc3)cc2)cc1 [Compound 2e, N-[3-(4-Trifluoromethylphenyl)-4-oxo-1,3-thiazolidin-2-yldene)-4-[5-(4-methylphenyl)-3-(trifluoro-methyl)-1H-pyrazol-1-yl]benzenesulfonamide]

Reference: paper PMC6269910 (Molecules, 2013)
